Measurements from the NIST ThermoML archive (doi:10.1021/je060411g).

Test: molar heat capacity at constant pressure
Conditions: 101.33 kPa

CC(C)(C)CO [2,2-dimethyl-1-propanol]
Conditions | molar heat capacity at constant pressure [J/K/mol]
155.06 K, Crystal 2, Vacuum adiabatic calorimetry | 99.89
157.04 K, Crystal 2, Vacuum adiabatic calorimetry | 100.86
159.01 K, Crystal 2, Vacuum adiabatic calorimetry | 101.85
160 K, Crystal 2 | 102.4
160.99 K, Crystal 2, Vacuum adiabatic calorimetry | 102.94
162.97 K, Crystal 2, Vacuum adiabatic calorimetry | 104.04
164.94 K, Crystal 2, Vacuum adiabatic calorimetry | 104.98
166.92 K, Crystal 2, Vacuum adiabatic calorimetry | 106.04
168.9 K, Crystal 2, Vacuum adiabatic calorimetry | 107.14
170 K, Crystal 2 | 107.8
170.88 K, Crystal 2, Vacuum adiabatic calorimetry | 108.23
172.86 K, Crystal 2, Vacuum adiabatic calorimetry | 109.18
174.83 K, Crystal 2, Vacuum adiabatic calorimetry | 110.28
176.81 K, Crystal 2, Vacuum adiabatic calorimetry | 111.23
178.79 K, Crystal 2, Vacuum adiabatic calorimetry | 112.41
180 K, Crystal 2 | 113.1
180.77 K, Crystal 2, Vacuum adiabatic calorimetry | 113.61
182.75 K, Crystal 2, Vacuum adiabatic calorimetry | 115.04
184.73 K, Crystal 2, Vacuum adiabatic calorimetry | 115.99
186.72 K, Crystal 2, Vacuum adiabatic calorimetry | 117.16
188.7 K, Crystal 2, Vacuum adiabatic calorimetry | 118.27
190 K, Crystal 2 | 119.2
190.69 K, Crystal 2, Vacuum adiabatic calorimetry | 119.62
192.68 K, Crystal 2, Vacuum adiabatic calorimetry | 120.83
194.67 K, Crystal 2, Vacuum adiabatic calorimetry | 122.08
196.66 K, Crystal 2, Vacuum adiabatic calorimetry | 123.36
198.66 K, Crystal 2, Vacuum adiabatic calorimetry | 124.74
200 K, Crystal 2 | 125.7
200.66 K, Crystal 2, Vacuum adiabatic calorimetry | 126.14
202.67 K, Crystal 2, Vacuum adiabatic calorimetry | 127.38
204.67 K, Crystal 2, Vacuum adiabatic calorimetry | 128.75
206.68 K, Crystal 2, Vacuum adiabatic calorimetry | 130.08
208.7 K, Crystal 2, Vacuum adiabatic calorimetry | 131.55
210 K, Crystal 2 | 132.5
210.71 K, Crystal 2, Vacuum adiabatic calorimetry | 132.96
212.71 K, Crystal 2, Vacuum adiabatic calorimetry | 134.53
214.72 K, Crystal 2, Vacuum adiabatic calorimetry | 136.27
216.71 K, Crystal 2, Vacuum adiabatic calorimetry | 138.22
220 K, Crystal 2 | 145
237.42 K, Crystal 1 | 158.16
239.45 K, Crystal 1 | 159.61
240 K, Crystal 1 | 160.1
241.42 K, Crystal 1 | 161.17
243.4 K, Crystal 1 | 162.58
245.38 K, Crystal 1 | 163.87
247.36 K, Crystal 1 | 165.12
249.33 K, Crystal 1 | 166.8
250 K, Crystal 1 | 167.3
251.31 K, Crystal 1 | 168.24
253.28 K, Crystal 1 | 169.62
255.26 K, Crystal 1 | 171.23
257.24 K, Crystal 1 | 172.85
259.21 K, Crystal 1 | 174.64
260 K, Crystal 1 | 175.3
261.18 K, Crystal 1 | 176.19
263.15 K, Crystal 1 | 177.74
265.1 K, Crystal 1 | 179.42
267.05 K, Crystal 1 | 181.32
268.99 K, Crystal 1 | 183.18
270 K, Crystal 1 | 184
270.93 K, Crystal 1 | 184.74
272.86 K, Crystal 1 | 186.95
274.77 K, Crystal 1 | 188.7
276.68 K, Crystal 1 | 190.91
278.57 K, Crystal 1 | 192.85
280 K, Crystal 1 | 194.5
280.46 K, Crystal 1 | 195.04
282.33 K, Crystal 1 | 197.11
284.2 K, Crystal 1 | 199.17
286.05 K, Crystal 1 | 201.41
287.9 K, Crystal 1 | 203.48
289.73 K, Crystal 1 | 205.72
290 K, Crystal 1 | 206
291.56 K, Crystal 1 | 207.85
293.37 K, Crystal 1 | 211.16
295.17 K, Crystal 1 | 213.27
298.15 K, Crystal 1 | 214.3
300 K, Crystal 1 | 216.4
310 K, Crystal 1 | 227.8
328.08 K, Liquid | 267.44
329.23 K, Liquid | 268.95
330 K, Liquid | 256.6
330.33 K, Liquid | 267.74
330.38 K, Liquid | 270.44
331.53 K, Liquid | 271.12
331.59 K, Liquid | 268.59
332.68 K, Liquid | 271.99
332.84 K, Liquid | 269.67
333.82 K, Liquid | 273.19
334.1 K, Liquid | 271.2
334.97 K, Liquid | 273.8
335.35 K, Liquid | 272.07
336.11 K, Liquid | 274.9
336.6 K, Liquid | 273.27
337.25 K, Liquid | 276.23
337.86 K, Liquid | 274.28
338.39 K, Liquid | 277.22
339.12 K, Liquid | 275.37
339.52 K, Liquid | 278.09
340 K, Liquid | 277.1
340.38 K, Liquid | 276.53
340.66 K, Liquid | 278.87
341.64 K, Liquid | 277.24
341.79 K, Liquid | 279.67
342.91 K, Liquid | 278.19
342.92 K, Liquid | 280.81
344.05 K, Liquid | 281.29
344.18 K, Liquid | 279.29
345.18 K, Liquid | 282
345.46 K, Liquid | 280.32
346.75 K, Liquid | 281.22
348.04 K, Liquid | 282.21
349.35 K, Liquid | 283.25
350 K, Liquid | 283.8
350.67 K, Liquid | 284.33
352.01 K, Liquid | 285.41
353.37 K, Liquid | 286.57
354.74 K, Liquid | 285.99
356.13 K, Liquid | 288.33
357.55 K, Liquid | 289.27
358.99 K, Liquid | 289.94
360 K, Liquid | 290.2
360.45 K, Liquid | 290.3
361.93 K, Liquid | 290.05
363.41 K, Liquid | 288.87
364.86 K, Liquid | 286.3
366.24 K, Liquid | 283
367.51 K, Liquid | 296.63
368.71 K, Liquid | 295.14
369.9 K, Liquid | 295.38
370 K, Liquid | 295.4
371.09 K, Liquid | 296.21
372.27 K, Liquid | 296.96
373.45 K, Liquid | 297.66
374.63 K, Liquid | 298.2
375.81 K, Liquid | 298.87
376.99 K, Liquid | 299.38
378.17 K, Liquid | 299.76
379.34 K, Liquid | 300.28
380.52 K, Liquid | 300.53
